Measurements reported in patent US20050175644A1, “Preparation for oxidation-sensitive compounds and method for making same” (priority 2002, published 2005).

Assays:
[1] = tested on: lipid-coated viruses; details: against lipid-coated viruses; cited from earlier work
[2] = tested on: transformed human keratinocytes (cell line TR 146); test: acute ocular tolerance on reconstituted corneas ([…] model), MTT cell viability test; type: cell-based; design: key to Colour of the two cultures: deep blue/purple colour when they are viable; white/yellow in colour if cell death occurs
Method: To start with, the product was evaluated in terms of its capacity to trigger cytopathic effects on corneas reconstituted by means of in vitro transformed keratinocytes cultures.
When they are cultured at the air-liquid interface in a specific medium, transformed human keratinocytes (cell line TR 146) form epithelial tissue without a corneal layer, similar to the human eye.
A sample of the product to be studied (30 μl) was deposited on each of the six equivalent reconstituted corneal cultures and spread out using a thin brush.
Two cultures were then incubated at 37° C., 5% CO2 for 10 minutes, 1 hour, 3 hours and 24 hours.
Negative controls substances (buffered phosphate saline solution A) and positive controls substances (0.4% SDS for “sodium dodecyl sulfate” in solution A) were prepared under sterile conditions and deposited simultaneously on the other two cultures. These cultures were incubated for one hand 24 hours. […]
Cell viability was measured qualitatively after staining. […]
After incubation for 30 minutes at room temperature, each culture's colour is observed and recorded: • negative control cultures should be a deep blue/purple colour, evidence of the viability of cells in the basal layer after 24 hours in contact, • positive control cultures should be white, evidence of cell death from the first hour of contact.

[3] = stability of BHT in the preparation on storage, liquid chromatography; type: physicochemical
Method: Finally, the stability of BHT in a preparation according to the invention was tested: • a container with 40 kg of preparation, covered with a simple lid without any special packaging such as the addition of an inert gas (e.g. nitrogen), was placed in storage for three yeas.

SMILES	antiviral properties [1]	Colour of the two cultures ([2]; 1 hour contact, MTT)	Toxicity ([2]; interpretation of the colours at 10 min, 1, 3 and 24 hours)	BHT concentrations by liquid chromatography ([3]; 40 kg of preparation in a container with simple lid, no inert gas, stored three years)	stability of BHT in a preparation according to the invention ([3]; storage for three years)
CC(C)(C)c1cc(C(=O)OCCOCCOCCOCCOCCOCCOCCOCCO)cc(C(C)(C)C)c1O [AVF1, octaoxyethyleneglycol 3,5-di-tert-butyl-4-hydroxybenzoate]	antiviral properties	–	–	–	–
CCCCCCCCCCCCOS(=O)(=O)[O-].[Na+] [Positive control, sodium dodecyl sulfate]	–	white	VI (very irritant (VI): white at 10 minutes, 1 hour, 3 hours and 24 hours)	–	–
CC(C)(C)c1cc(C(=O)O)cc(C(C)(C)C)c1O [BG4, 3,5-di-tert-butyl-4-hydroxybenzoic acid]	antiviral properties	–	–	–	–
Cc1cc(C(C)(C)C)c(O)c(C(C)(C)C)c1 [BHT, 3,5-di-tert-butyl-4-hydroxytoluene]	antiviral properties	–	–	remained the same	excellent
